How the values were obtained:
Test in all cases: Bliss excess, mean over the matrix (fraction); higher = more synergy
AM-38 (Glioblastoma) = system: AM-38 (Glioblastoma)
Outline: (§1)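 Cell lines grown in DMEM/F12 or RPMI with 10% FBS were plated in 1536-well plates and held 24 hours at 37°C, 5% CO2 before 72 hours of exposure to two-drug dose matrices, with DMSO typically at 0.2%. CellTiter-Glo 2.0 luminescence gave viability, which was converted to inhibition. Vehicle wells were set to 0 and blank wells to 1. Combination Emax is the second-highest inhibition in the matrix, and Bliss excess is the observed combination effect minus the expected EA + EB − EA·EB, where EA and EB are the single-agent effects.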

[1] = system: BHT-101 (Thyroid Gland Carcinoma)
Outline: as §1

[2] = system: BxPC-3 (Pancreatic Carcinoma)
Outline: as §1

[3] = system: IA-LM (Non-Small Cell Lung Carcinoma)
Outline: as §1

IST-MEL1 (Melanoma) = system: IST-MEL1 (Melanoma)
Outline: as §1

[4] = system: KP-4 (Pancreatic Carcinoma)
Outline: as §1

[5] = system: MDA-MB-415 (Breast Carcinoma)
Outline: as §1

[6] = system: MONO-MAC-6 (Acute Myeloid Leukemia)
Outline: as §1

[7] = system: NAMALWA (Burkitt's Lymphoma)
Outline: as §1

NCI-H2373 (Mesothelioma) = system: NCI-H2373 (Mesothelioma)
Outline: as §1

[8] = system: PL4 (Pancreatic Carcinoma)
Outline: as §1

[9] = system: Raji (Burkitt's Lymphoma)
Outline: as §1

[10] = system: SCC-4 (Oral Cavity Carcinoma)
Outline: as §1

[11] = system: SK-CO-1 (Colorectal Carcinoma)
Outline: as §1

[12] = system: SNU-423 (Hepatocellular Carcinoma)
Outline: as §1

[13] = system: SUP-M2 (T-Cell Non-Hodgkin's Lymphoma)
Outline: as §1

[14] = system: SiHa (Cervical Carcinoma)
Outline: as §1

[15] = system: T84 (Colorectal Carcinoma)
Outline: as §1

WM35 (Melanoma) = system: WM35 (Melanoma)
Outline: as §1

[16] = system: ZR-75-30 (Breast Carcinoma)
Outline: as §1

| Compound | Bliss excess (AM-38 (Glioblastoma)) | Bliss excess [1] | Bliss excess [2] | Bliss excess [3] | Bliss excess (IST-MEL1 (Melanoma)) | Bliss excess [4] | Bliss excess [5] | Bliss excess [6] | Bliss excess [7] | Bliss excess (NCI-H2373 (Mesothelioma)) | Bliss excess [8] | Bliss excess [9] | Bliss excess [10] | Bliss excess [11] | Bliss excess [12] | Bliss excess [13] | Bliss excess [14] | Bliss excess [15] | Bliss excess (WM35 (Melanoma)) | Bliss excess [16] |
| --- | --- | --- | --- | --- | --- | --- | --- | --- | --- | --- | --- | --- | --- | --- | --- | --- | --- | --- | --- | --- |
| CN(C)CCCOc1ccc(-c2ccc3ncc4c(c3c2)n(C2CCOCC2)c(=O)n4C)cn1 [AZD0156] + C=CCn1c(=O)c2cnc(Nc3ccc(N4CCN(C)CC4)cc3)nc2n1-c1cccc(C(C)(C)O)n1 [AZD1775] (first compound max 1 µM, partner max 1 µM) | 0.0248 | -0.0209 | -0.0506 | -0.0068 | -0.0225 | -0.0898 | -0.0615 | 0.0017 | 0.0156 | -0.0126 | -0.0586 | -0.0278 | -0.0393 | -0.0523 | -0.0554 | 0.0535 | -0.0334 | -0.0631 | -0.0166 | -0.0398 |
| CN(C)CCCOc1ccc(-c2ccc3ncc4c(c3c2)n(C2CCOCC2)c(=O)n4C)cn1 [AZD0156] + CCN(CCO)CCCOc1ccc2c(Nc3cc(CC(=O)Nc4cccc(F)c4)[nH]n3)ncnc2c1 [AZD2811] (first compound max 1 µM, 7x7, partner max 1 µM) | 0.0165 | -0.0273 | -0.0212 | -0.0326 | -0.0131 | -0.0162 | -0.0087 | 0.053 | 0.0323 | -0.0048 | 0.0286 | 0.0082 | -0.0668 | 0.0205 | -0.0192 | -0.0286 | -0.0083 | -0.0248 | -0.0426 | -0.0415 |
| CN(C)CCCOc1ccc(-c2ccc3ncc4c(c3c2)n(C2CCOCC2)c(=O)n4C)cn1 [AZD0156] + C[C@@H]1COCCN1C2=NC(=NC(=C2)C3(CC3)[S@](=N)(=O)C)C4=C5C=CNC5=NC=C4 [AZD6738] (first compound max 1 µM, 7x7, partner max 10 µM) | 0.0677 | 0.0222 | -0.0083 | -0.0241 | -0.0196 | -0.0286 | -0.007 | -0.0253 | 0.0342 | -0.0065 | 0.0862 | 0.0164 | -0.0071 | -0.0865 | -0.0414 | 0.0555 | -0.0456 | 0.0182 | 0.0618 | -0.0305 |
| CN(C)CCCOc1ccc(-c2ccc3ncc4c(c3c2)n(C2CCOCC2)c(=O)n4C)cn1 [AZD0156] + O=C(c1cc(Cc2n[nH]c(=O)c3ccccc23)ccc1F)N1CCN(C(=O)C2CC2)CC1 [Olaparib] (first compound max 3 µM, partner max 3 µM) | 0.167 | 0.0766 | -0.0342 | 0.0017 | 0.0034 | 0.0711 | 0.0017 | 0.102 | 0.117 | 0.0178 | 0.018 | 0.156 | 0.0057 | -0.0173 | 0.0634 | 0.202 | -0.0248 | -0.0535 | -0.0272 | -0.0203 |
| C=CCn1c(=O)c2cnc(Nc3ccc(N4CCN(C)CC4)cc3)nc2n1-c1cccc(C(C)(C)O)n1 [AZD1775] + C[C@@H]1COCCN1C2=NC(=NC(=C2)C3(CC3)[S@](=N)(=O)C)C4=C5C=CNC5=NC=C4 [AZD6738] (first compound max 1 µM, partner max 10 µM) | 0.0618 | 0.0094 | -0.0161 | 0.0477 | 0.021 | 0.031 | 0.0112 | 0.0178 | 0.0397 | 0.025 | 0.0501 | 0.109 | -0.0248 | -0.0067 | -0.0095 | -0.0015 | 0.0019 | 0.0084 | 0.0626 | 0.0186 |
| C=CCn1c(=O)c2cnc(Nc3ccc(N4CCN(C)CC4)cc3)nc2n1-c1cccc(C(C)(C)O)n1 [AZD1775] + O=C(c1cc(Cc2n[nH]c(=O)c3ccccc23)ccc1F)N1CCN(C(=O)C2CC2)CC1 [Olaparib] (first compound max 1 µM, partner max 10 µM) | -0.0018 | -0.0568 | -0.0266 | -0.0513 | -0.0596 | -0.0373 | -0.0482 | 0.0004 | -0.0133 | -0.013 | 0.0037 | -0.016 | -0.0341 | -0.0858 | -0.0577 | 0.0276 | -0.0444 | -0.0136 | -0.0146 | -0.0461 |
| CCN(CCO)CCCOc1ccc2c(Nc3cc(CC(=O)Nc4cccc(F)c4)[nH]n3)ncnc2c1 [AZD2811] + C=CCn1c(=O)c2cnc(Nc3ccc(N4CCN(C)CC4)cc3)nc2n1-c1cccc(C(C)(C)O)n1 [AZD1775] (first compound max 1 µM, partner max 1 µM) | 0.0107 | 0.0043 | -0.0099 | 0.0064 | 0.0196 | 0.0441 | -0.0152 | 0.0263 | -0.0101 | -0.0482 | -0.0002 | 0.0278 | -0.0024 | -0.0559 | -0.01 | -0.036 | 0.0089 | -0.0627 | -0.0098 | -0.0422 |
| CCN(CCO)CCCOc1ccc2c(Nc3cc(CC(=O)Nc4cccc(F)c4)[nH]n3)ncnc2c1 [AZD2811] + C[C@@H]1COCCN1C2=NC(=NC(=C2)C3(CC3)[S@](=N)(=O)C)C4=C5C=CNC5=NC=C4 [AZD6738] (first compound max 1 µM, 7x7, partner max 10 µM) | -0.0202 | -0.0298 | -0.0352 | -0.0264 | -0.0456 | -0.0273 | -0.0438 | -0.0262 | 0.0394 | -0.0139 | -0.0171 | -0.0562 | -0.0707 | -0.0309 | -0.0386 | -0.0545 | -0.0137 | -0.0103 | -0.0306 | -0.0533 |
| CCN(CCO)CCCOc1ccc2c(Nc3cc(CC(=O)Nc4cccc(F)c4)[nH]n3)ncnc2c1 [AZD2811] + O=C(c1cc(Cc2n[nH]c(=O)c3ccccc23)ccc1F)N1CCN(C(=O)C2CC2)CC1 [Olaparib] (first compound max 1 µM, 7x7, partner max 10 µM) | 0.0471 | -0.0193 | 0.0032 | -0.031 | 0.0192 | 0.0525 | 0.0059 | 0.0056 | 0.0548 | 0.0244 | -0.0043 | 0.0005 | -0.0447 | 0.0223 | -0.0138 | -0.0429 | -0.0053 | -0.0067 | 0.0069 | -0.0225 |
| CN(CCO)CC[C@H](CSc1ccccc1)Nc1ccc(S(=O)(=O)NC(=O)c2ccc(N3CCC([C@@H](O)c4ccccc4-c4ccc(Cl)cc4)CC3)cc2)cc1S(=O)(=O)C(F)(F)F [AZD4320] + C1CN(CCC1(C(=O)N[C@@H](CCO)C2=CC=C(C=C2)Cl)N)C3=NC=NC4=C3C=CN4 [Capivasertib] (first compound max 1 µM, 7x7, partner max 3 µM) | -0.0484 | 0.0092 | -0.0395 | -0.0888 | -0.0226 | -0.0436 | -0.0284 | -0.0438 | 0.0419 | -0.0351 | -0.0712 | -0.0109 | -0.0454 | -0.0462 | -0.0338 | -0.0192 | -0.0476 | -0.0269 | -0.017 | -0.0914 |
| Cc1c2c(nn1C)CSCc1cc(n(C)n1)CSc1cc(c3ccccc3c1)OCCCc1c(C(=O)O)n(C)c3c-2c(Cl)ccc13 [AZD5991] + C[C@@H](Nc1cc(F)cc(F)c1)c1cc(C(=O)N(C)C)cc2c(=O)cc(N3CCOCC3)oc12 [AZD8186] (first compound max 1 µM, 7x7, partner max 3 µM) | -0.0352 | 0.0094 | -0.0059 | -0.0274 | -0.0184 | -0.0235 | 0.0416 | 0.0143 | 0.0021 | -0.0288 | 0.0356 | 0.0164 | 0.0116 | -0.0398 | -0.0326 | -0.0203 | 0.0044 | – | 0.0064 | 0.0179 |
| Cc1nc(Nc2ncc(C(=O)Nc3c(C)cccc3Cl)s2)cc(N2CCN(CCO)CC2)n1 [Dasatinib] + CC(=O)Nc1cccc(-n2c(=O)n(C3CC3)c(=O)c3c(Nc4ccc(I)cc4F)n(C)c(=O)c(C)c32)c1 [Trametinib] (first compound max 2 µM, 7x7, partner max 1 µM) | 0.0091 | 0.0569 | 0.0009 | 0.117 | – | 0.0558 | -0.0197 | -0.0052 | -0.0039 | -0.0756 | -0.0056 | -0.0232 | -0.0042 | 0.0602 | -0.047 | -0.0216 | -0.0082 | -0.0174 | -0.0182 | -0.0511 |
